Assay results published in patent US20200360331A1, “COMPOSITIONS COMPRISING 15-HEPE AND/OR 15-HETrE AND METHODS OF TREATING OR PREVENTING CARDIOMETABOLIC DISEASE, METABOLIC SYNDROME, AND/OR RELATED DISEASES” (Afimmune Limited, priority 2019, published 2020).
“Also recorded” adds a separate entry of the source.

Columns and labels:
[1] = test system: TβR-II (type II TGF-β receptor); test: Sucrose density gradient analysis in Mv1Lu cells, TβR-II; type: cell-based, mink; details: summary, free acid or ethyl ester form
Protocol: Sucrose gradient ultracentrifugation and confocal microscopy were used to identify 15-HEPE induced microdomain translocation of TGF-β receptors by sucrose. Sucrose density gradient analysis of TGF-β receptors was conducted in the plasma membranes of Mv1Lu cells (mink lung epithelial cell) treated with 100 μM of 15-HEPE and an equal volume of DMSO (dimethyl sulfoxide) at 37° C. for 0, 1, 4, and 24 hours, and the cell lysates from these treated cells were subjected to sucrose density gradient ultracentrifugation. The sucrose gradient fractions were then analyzed by Western blot analysis using anti-TβR-I (type I TGF-β receptor), anti-TβR-II (type II TGF-β receptor), anti-TβR-III (type III TGF-β receptor, betaglycan), anti-EGFR (epidermal growth factor receptor), and anti-caveolin-1 antibodies. The lipid raft/caveolae, and non-lipid raft microdomain localization of TβR-I, TβR-II, TβR-III, EGFR and caveolin-1 in the plasma membrane of untreated cells or cells treated with 15-HEPE were assessed to determine the effects of 15-HEPE on the membrane microdomain localization of the TGF-β receptors.
A 15-HEPE sucrose density gradient analysis of TGF-β receptors was conducted in the plasma membranes of mink lung epithelial cell (Mv1 Lu) cells treated with 100 μM of 15-HEPE and an equal volume of dimethyl sulfoxide (DMSO) at 37° C. for 0, 1, 4, and 24 hours, and the cell lysates from these treated cells were subjected to sucrose density gradient ultracentrifugation. The sucrose gradient fractions were then analyzed by Western blot analysis using anti-TβR-I (type I TGF-β receptor—FIG. 18C), anti-TβR-II (type II TGF-β receptor—FIG. 18D), anti-TβR-III (type III TGF-β receptor, betaglycan—FIG. 18E), anti-EGFR (epidermal growth factor receptor—FIG. 18F), and anti-caveolin-1 antibodies (FIG. 18G). Fractions 4 to 5 contained lipid rafts/caveolae whereas fractions 7-10 were non-lipid raft fractions. […] Stars (★) indicate 15-HEPE increased abundance of TβR-I (24 hours) in the fraction in comparison with that of the control and shorter treatment durations (FIG. 18C). […] The triangles (▾) indicate translocation and decreased abundance of TβR-II in the fraction in comparison with control cells (FIG. 18D).

[2] = test system: TGF-β-stimulated intracellular signaling (SMAD2/3 phosphorylation); test: TGF-β-stimulated SMAD2/3 phosphorylation in LX2 liver stellate cells; type: cell-based, human; details: 0 μM to 100 μM for 24 hours, then 30 min TGF-β stimulation
[3] = test system: TGF-β induced epithelial mesenchymal transition (EMT) protein production; test: TGF-β induced EMT protein production in HepG2 cells; type: cell-based, human; details: increasing doses for 1 hour, then 200 pM TGF-β for 48 hours
Protocol: The effects of 15-HEPE on TGF-β-induced signaling and cellular responses were determined. To test the effect of 15-HEPE on TGF-β-induced signaling, the activities of 15-HEPE to regulate TGF-β-stimulated Smad2 phosphorylation and nuclear translocation, both of which are key signaling events leading to TGF-β-induced cellular responses, were tested. One important biological activity of TGF-β is transcriptional activation of genes responsible for epithelial-mesenchymal transition (EMT), which is a crucial event in wound healing, tissue fibrosis, and cancer progression. The effect of 15-HEPE on TGFβ-induced epithelial mesenchymal transition related proteins (such as fibronectin, PAI-1, and N-cadherin etc.) expression in HepG2 and […] cells were assessed. HepG2 cells (human hepatoma cell line) were treated in increasing doses of 15-HEPE stage II in DMEM containing 0.1% of FBS for 1 hour and continually stimulated with or without 200 picomolar (pM) of TGF-β for 48 hours.
HepG2 cells (human hepatoma cell line) were treated in increasing doses of 15-HEPE stage II in DMEM containing 0.1% of FBS for 1 hour and continually stimulated with or without 200 picomolar (pM) of TGF-β for 48 hours. The two panels shown in FIG. 18A are two separate experiments run under the same experimental conditions.

[4] = UUO study: body weight, kidney weight, general condition; type: in vivo; details: UUO mice
Protocol: UUO Surgery: On day 0 of the study, UUO surgery was performed on mice under pentobarbital sodium anesthesia. The mouse's hair was first shaved and then abdomen cut open to exteriorize the mouse's left ureter. The ureter was ligated 4-0 nylon sutures at two points. The mouse's peritoneum and skin were then closed with sutures, and the mouse transferred to a clean cage until recovered from the anesthesia. Sham operated mice had their left ureter exposed but not ligated. […]
Animals: Seven-week-old female C57BL/6 mice (i.e., animals) were obtained from Japan SLC, Inc. (Japan) and were housed and fed with a normal diet (CE-2; CLEA Japan, Japan) under controlled conditions. The animals were maintained in a specific-pathogen free (SPF) facility under controlled conditions of temperature (e.g., 23±2° C.), humidity (e.g., 45±10%), lighting (e.g., 12-hour artificial light and dark cycles; light from 8:00 to 20:00) and air exchange. A high pressure was maintained in the experimental room to prevent contamination of the facility. The animals were housed in TPX cages (CLEA Japan) with a maximum of 4 mice per cage. Sterilized Paper-Clean (Japan SLC) was used for bedding and replaced once a week. Sterilized solid normal diet was provided ad libitum, being placed in a metal lid on the top of the cage. Pure water was also provided ad libitum from a water bottle equipped with a rubber stopper and a sipper tube. Water bottles were replaced once a week, cleaned, and sterilized in an autoclave and reused. Mice were identified by ear punch and each cage was labeled with a specific identification code.
Animal Monitoring and Sacrifice: The viability, clinical signs and behavior for the mice were monitored daily. Individual body weight was measured daily before treatment during the treatment period. […] The animals were sacrificed by exsanguination through direct cardiac puncture under isoflurane anesthesia (Pfizer Inc.) at Day 14.

UUO mice [5] = test: UUO study: kidney hydroxyproline content; type: in vivo, C57BL/6 mice
Protocol: (§1) UUO Surgery: On day 0 of the study, UUO surgery was performed on mice under pentobarbital sodium anesthesia. The mouse's hair was first shaved and then abdomen cut open to exteriorize the mouse's left ureter. The ureter was ligated 4-0 nylon sutures at two points. The mouse's peritoneum and skin were then closed with sutures, and the mouse transferred to a clean cage until recovered from the anesthesia. Sham operated mice had their left ureter exposed but not ligated.
Measurement of Kidney Biochemistry: To quantify kidney hydroxyproline content, frozen left kidney samples were processed by an alkaline-acid hydrolysis method as follows: kidney samples were dissolved in 2 normal (N) sodium hydroxide (NaOH) at 65° C. and autoclaved at 121° C. for 20 minutes. The lysed samples (400 μL) were acid-hydrolyzed with 400 μL of 6N hydrochloride acid (HCl) at 121° C. for 20 minutes, and neutralized with 400 μL of 4N NaOH containing 10 mg/mL of activated carbon. An AC buffer (e.g., 2.2M acetic acid/0.48M citric acid, 400 μL) was added to the samples, followed by centrifugation to collect the supernatant. A standard curve of hydroxyproline was constructed with serial dilutions of trans-4-hydroxy-L-proline (Sigma-Aldrich, USA) starting at 16 μg/mL. The prepared samples and standards (e.g., each 400 μL) were mixed with 400 μL chloramine T solution (Wako Pure Chemical Industries, Japan) and incubated for 25 minutes at room temperature. The samples were then mixed with Ehrlich's solution (e.g., 400 μL) and heated at 65° C. for 20 minutes to develop the color. After samples were cooled on ice and centrifuged to remove precipitates, the optical density of each supernatant was measured at 560 nanometers (nm). The concentrations of hydroxyproline were calculated from the hydroxyproline standard curve. Protein concentrations of kidney samples were determined using a bicinchoninic (BCA) protein assay kit (Thermo Fisher Scientific, USA) and used to normalize the calculated hydroxyproline values. Kidney hydroxyproline contents were expressed as microgram (μg) per mg protein.

UUO mice [6] = test: UUO study: Sirius red staining of kidney sections, fibrosis area; type: in vivo, C57BL/6 mice; details: for Sirius red-positive area: kidney
Protocol: as §1
Histopathological analysis: To visualize collagen deposition, kidney sections were stained using picro-Sirius red solution (Waldeck, Germany). For quantification of interstitial fibrosis area, bright field images in the corticomedullary region were captured using a digital camera (e.g., DFC295; Leica Microsystems, Germany) at 200-fold magnification, and the positive areas in 5 fields/section were measured using ImageJ software (National Institute of Health, USA).

[7] = 50 mg/kg PO QD Day 0-13, Day 14
[8] = 250 mg/kg PO QD Day 0-13, Day 14

Structure (SMILES) | translocation and degradation of type II TGF-β receptors [1] | TGF-β-stimulated intracellular signaling (SMAD2/3 phosphorylation) [2] | TGF-β induced EMT (pro-fibrotic) protein production [3] | Body Weight ([4]; 5 mg/kg PO QD Day 0-13, Day 14) [g] | Body Weight [4, 7] [g] | Body Weight [4, 8] [g] | kidney hydroxyproline contents compared with the Vehicle group (UUO mice [5]; 5 mg/kg) | Kidney hydroxyproline (UUO mice [5]; 5 mg/kg PO QD Day 0-13, Day 14) [μg/mg total protein] | kidney hydroxyproline contents compared with the Vehicle group (UUO mice [5]; 50 mg/kg) | Kidney hydroxyproline (UUO mice [5]; [7]) [μg/mg total protein] | kidney hydroxyproline contents compared with the Vehicle group (UUO mice [5]; 250 mg/kg) | Kidney hydroxyproline (UUO mice [5]; [8]) [μg/mg total protein] | fibrosis area compared with the Vehicle group (UUO mice [6]; 5 mg/kg, Mann-Whitney U test (p<0.1)) | fibrosis area compared with the Vehicle group (UUO mice [6]; 50 mg/kg, Bonferroni Multiple Comparison) | fibrosis area compared with the Vehicle group (UUO mice [6]; 50 mg/kg, Mann-Whitney U test (p<0.1)) | fibrosis area compared with the Vehicle group (UUO mice [6]; 250 mg/kg, Mann-Whitney U test (p<0.1)) | Sirius red-positive area (UUO mice [6]; 5 mg/kg PO QD Day 0-13, Day 14) [%] | Sirius red-positive area (UUO mice [6]; [7]) [%] | Sirius red-positive area (UUO mice [6]; [8]) [%]
CCC=CCC(O)C=CC=CCC=CCC=CCCCC(=O)OCC (stereo not shown) [15-HEPE EE] | induced translocation and degradation of type II TGF-β receptors | inhibited TGF-β induced intracellular signaling (SMAD2/3) | blocked TGF-β induced pro-fibrotic protein production | – | – | – | – | – | – | – | – | – | – | – | – | – | – | – | –
CCCCCC(O)/C=C/C=C\C/C=C\CCCCCCC(=O)O (stereo not shown) [DS109, 15-hydroxy-eicosa-8Z,11Z,13E-trienoic acid] | – | – | – | 19.1 ± 0.9 | 18.6 ± 0.6 | 18.6 ± 0.7 | significant decreases | 9.94 ± 2.02 | no significant difference | 13.94 ± 6.44 | significant decreases | 8.30 ± 1.04 | tended to decrease; also recorded: reduction trend | tended to decrease | tended to decrease; also recorded: reduction trend | tended to decrease; also recorded: reduction trend | 4.23 ± 1.90 | 3.58 ± 1.04 | 4.71 ± 0.96
